Measurements published in patent US7820379B2, “Process for high throughput screening of CpG-based immuno-agonist/antagonist” (Coley Pharmaceutical GmbH, priority 2000, dated 2010).

Key:
human B cells = experiment: Human B cell proliferation by 3H-thymidine uptake; assay type: cell-based; conditions: purified human B cells, day two; E. coli DNA 50 μg/ml, ODN 2 μM
Excerpt: Bacterial DNA has been described as a mitogen for both murine and human B cells. Although LPS is also mitogenic for murine B cells, it is generally accepted that LPS is not a mitogen for human B cells. […] B cell proliferation was monitored at day two by ^3H-thymidine uptake.

[1] = system: monocyte-derived dendritic cells (MDDC); experiment: Cytokine production by monocyte-derived dendritic cells (ELISA); assay type: cell-based, human; conditions: purified MDDC; ODN 2 μM, LPS 100 ng/ml
Description: Human dendritic cells (DC) have been claimed to be responsive to CpG-DNA. […] The converse was true for stimulation of monocyte-derived dendritic cells (MDDC) (FIG. 8 and unpublished data). […] IL-8 and TNF concentration was determined by enzyme-linked immunosorbent assay (ELISA). The CD123+DC response was DNA- and CpG-motif restricted. […] Due to this segregated response we analyzed TLR expression.

| Sequence | B cell proliferation (3H-thymidine uptake) (human B cells) | response of MDDC (IL-8, TNF) [1] |
| --- | --- | --- |
| TCGTCGTTTTGTCGTTTTGTCGTT [ODN 2006] | proliferate | not |
| TGCTGCTTTTGTGCTTTTGTGCTT (listed as DNA, chemistry not fully specified) [ODN 2006-GC] | not |  |
